# Experimental data taken from ChEMBL document CHEMBL2046283, “Iotrochamides A and B, antitrypanosomal compounds from the Australian marine sponge Iotrochota sp” (Bioorg Med Chem Lett, 2012).
# pIC50: −log10 of the molar value.
# How the values were obtained:
# [1] = tested on: Trypanosoma brucei brucei; assay: Antitrypanosomal activity against Trypanosoma brucei brucei BS427 after 48 hrs by alamar blue assay; format: functional, organism-based; conditions: BS427, 48 h
# [2] = Growth inhibition of human HEK293 cells at 50 uM after 48 hrs by alamar blue assay relative to control; format: cell-based; conditions: read-out: GI
# [3] = Growth inhibition of human HEK293 cells at 70 uM after 48 hrs by alamar blue assay relative to control; format: cell-based; conditions: read-out: GI
pIC50 [1],SMILES,"inhibition at 48 h, 50 µM [2]","inhibition at 48 h, 70 µM [3]"
5.33,CO/C(=C\c1ccccc1)C(=O)N[C@@H](Cc1ccc(O)cc1)C(=O)O [IOTROCHAMIDES A],85%,–
5.47,CO/C(=C\c1ccccc1)C(=O)N[C@@H](Cc1c[nH]c2cc(Br)ccc12)C(=O)O [IOTROCHAMIDES B],–,100%
